Patent US5614374A, “Glycerol dehydrogenase, process for its production and its use” (Toyo Boseki Kabushiki Kaisha, priority 1992, dated 1997)

Tests used:
[1] = system: PQQ-dependent membrane-bound glycerol dehydrogenase from Gluconobacter industrius IFO 3260; assay: Km determination of comparison glycerol dehydrogenase (membrane-bound); format: biochemical; conditions: enzyme preparation of Comparison 1, solubilized with dimethyldodecylamine oxide
Protocol: (§1) Hereunder is explained a method for the determination of the activity of the novel glycerol dehydrogenase according to the present invention. To the reaction solution are added 0.7 ml of a 50 mM Tris--HCl buffer solution, 0.1 ml of a 0.1 M glycerol and the enzyme solution to a total volume of 0.9 ml. The mixture was preheated at 25° C. for 5 minutes, and 0.1 ml of a 0.1 M potassium ferricyanide was added thereto for the initiation of the reaction. The reaction is terminated by addition of 0.5 ml of ferric sulfate/Dupanol reagent thereto, after which 3.5 ml of distilled water is added thereto to a total volume of 5 ml. Then the mixture was allowed to stand at 25° C. for 30 minutes, followed by measurement of absorbance at 660 nm. A blank test is carried out in the same manner as the above-mentioned one, but adding distilled water instead of the enzyme solution. The activity of glycerol dehydrogenase is expressed with one unit (U) being defined as the enzyme activity which oxidizes 1 μmole of glycerol in 1 minute under the conditions specified above.
Gluconobacter industrious IFO3260 was cultivated in the same manner as in Example 1. The culture solution was centrifuged to harvest the cells which were then subjected to a conventional manner to yield a membrane fraction. […]

[2] = system: PQQ-dependent soluble glycerol dehydrogenase from Pseudomonas sp. TE3493 (FERM BP-4169); assay: Km determination of purified glycerol dehydrogenase (ferricyanide activity assay); format: biochemical; conditions: purified enzyme of Example 1
Protocol: as §1
In a 500 ml Sakaguchi flask there were placed 100 ml of a culture medium which contained 0.5% glycerol, 0.2% NaNO3, 0.2% (NH4)2 SO4, 1% K2 HPO4, 1% KH2 PO4, 0.02% MgSO4.7H2 O and 0.05% yeast extracts, followed by autoclaving at 121° C. for 15 minutes. One loopful of cells of Pseudomonas sp. […]

Structure (SMILES): OCC(O)CO [glycerol]
- Km [1]: 34 mM
- Km [2]: 2.45 mM
